This is an account of results in publication PMC5074247 (Biopharmaceutics & Drug Disposition, 2016).

Where two headings read alike, the source gives them in different places.

For orientation: IC50 means the point on the concentration scale where inhibition reaches its midpoint. Broadly, the pKa is the negative logarithm of the acid dissociation constant.

The conditions of data set [1]: cited from earlier work.
For data set [2] the following is noted: cited from earlier work. The source holds these as a separate data set.
The conditions of data set [3]: ZDF rat model; compared with sitagliptin ref 39; cited from earlier work.
For data set [4] the following is noted: intravenously administered to rats at doses above 3 mg/kg ref 23; cited from earlier work.
A further data set relates to DPP‐4. To be noted: against DPP‐4 ref 2; cited from earlier work.
The conditions of data set [5]: ref manufacturer's interview form; cited from earlier work.
The format of data set [6] is in vivo, Sprague–Dawley rats. Conditions: oral 1 mg/kg [^14C]teneligliptin, SD rats.

For `CC#CCn1c(N2CCC[C@@H](N)C2)nc2c1c(=O)n(Cc1nc(C)c3ccccc3n1)c(=O)n2C` [Linagliptin, 8‐(3‐I‐aminopiperidin‐1‐yl)‐7‐but‐2‐ynyl‐3‐methyl‐1‐(4‐methyl‐quinazolin‐2‐ylmethyl)‐3,7‐dihydropurine‐2,6‐dione], the V ss in data set [1] (intravenous administration to rats ref 23) was 50.3 L/kg. The “K p of radioactivity” value in data set [2] (Heart, oral 2 mg/kg, 4 h, rats ref 23) was 4.78; in data set [2] (Kidney, oral 2 mg/kg, 4 h, rats ref 23, 2 mg/kg) it was 113; in data set [2] (Kidney, oral 2 mg/kg, 4 h, rats ref 23, listed as linagliptin, 2 mg/kg), “around 100”; in data set [2] (Liver, oral 2 mg/kg, 4 h, rats ref 23) it was 42.3; in data set [2] (Lung, oral 2 mg/kg, 4 h, rats ref 23), 11.1. Moreover, in data set [3], the “acetylcholine‐induced vascular relaxation” value is listed as “significantly stronger”. In addition, the tissue distribution entry in data set [4] was “non‐linear tissue distribution”.

For the compound `Cc1cc2ncc(C(=O)NCC(C)(C)NCC(=O)N3CCC[C@H]3C#N)cn2n1.Cl` [Anagliptin, N‐[2‐({2‐[(2S)‐2‐cyanopyrrolidin‐1‐yl]‐2‐oxoethyl}amino)‐2‐methylpropyl]‐2‐methylpyrazolo[1,5‐a]pyrimidine‐6‐carboxamide hydrochloride], the V ss in data set [1] (intravenous administration to rats ref 2) is 0.68 L/kg. Also, the IC50 in the data set with DPP‐4 was 3.8 nM. The “K p of radioactivity” value is 0.74 in data set [2] (Heart, oral 10 mg/kg, 6 h, rats ref 21); 6.71 in data set [2] (Kidney, oral 10 mg/kg, 6 h, rats ref 21, 10 mg/kg); 4.36 in data set [2] (Liver, oral 10 mg/kg, 6 h, rats ref 21); 1.50 in data set [2] (Lung, oral 10 mg/kg, 6 h, rats ref 21); 0.81 in data set [2] (Pancreas, oral 10 mg/kg, 6 h, rats ref 21). Besides, in data set [5], the pKa is recorded as 6.7.

On to `N#C[C@@H]1C[C@@H]2C[C@@H]2N1C(=O)[C@@H](N)C12CC3CC(CC(O)(C3)C1)C2` [Saxagliptin], for which the V ss in data set [1] (intravenous administration to rats ref 20) is on record as 5.2 20 l/kg. In data set [5], the pKa is listed as 7.3.

Consider `O=C(C1CC(N2CCN(c3cc(CO)nn3-c3ccccc3)CC2)CN1)N1CCSC1` (stereo not shown) [M4], for which the “metabolite detection in kidney” value in data set [6] (kidney, 0.5, 24 and 72 h) was “detected in trace concentrations”.

As to `N#C[C@@H]1CCCN1C(=O)CNC12CC3CC(CC(O)(C3)C1)C2` [Vildagliptin, 1‐[[(3‐Hydroxy‐1‐adamantyl)amino]acetyl]‐2‐cyano‐(S)‐pyrrolidine], the “K p of radioactivity” value is 1.48 in data set [2] (Heart, oral 100 mg/kg, 4 h, rats ref 26); 13.4 in data set [2] (Kidney, oral 100 mg/kg, 4 h, rats ref 26); 13.6 in data set [2] (Liver, oral 100 mg/kg, 4 h, rats ref 26); 2.60 in data set [2] (Lung, oral 100 mg/kg, 4 h, rats ref 26); 3.29 in data set [2] (Pancreas, oral 100 mg/kg, 4 h, rats ref 26). Besides, the pKa in data set [5] is on record as 7.6.

Turning to `Cc1cc(N2CCN(C3CNC(C(=O)N4CC[S+]([O-])C4)C3)CC2)n(-c2ccccc2)n1` (stereo not shown) [M1], the “metabolite detection in plasma” value in data set [6] (plasma, 0.5 h) is given as “detected at low levels”.

Turning to `Cn1c(=O)cc(N2CCC[C@@H](N)C2)n(Cc2ccccc2C#N)c1=O` [Alogliptin], the V ss in data set [1] (intravenous administration to rats ref 19) is given as 3.5 19 l/kg. Besides, the “K p of radioactivity” value in data set [2] (Heart, oral 3 mg/kg, 4 h, rats ref 22) is 2.36; in data set [2] (Kidney, oral 3 mg/kg, 4 h, rats ref 22) it was 29.7; in data set [2] (Liver, oral 3 mg/kg, 4 h, rats ref 22), 17.3; in data set [2] (Lung, oral 3 mg/kg, 4 h, rats ref 22) it was 8.6; in data set [2] (Pancreas, oral 3 mg/kg, 4 h, rats ref 22) it was 4.94. The pKa in data set [5] is listed as 8.5.

On to `N[C@@H](CC(=O)N1CCn2c(nnc2C(F)(F)F)C1)Cc1cc(F)c(F)cc1F` [Sitagliptin, (2R)‐4‐Oxo‐4‐[3‐(trifluoromethyl)‐5,6‐dihydro[1,2,4]‐triazolo[4,3‐a]pyrazin‐7(8H)‐yl]‐1‐(2,4,5‐trifluorophenyl)butan‐2‐amine], for which, in data set [1] (intravenous administration to rats ref 25), the V ss was 8.8 25 l/kg. In addition, the “K p of radioactivity” value in data set [2] (Heart, oral 5 mg/kg, 4 h, rats ref 25) was 2.73; in data set [2] (Kidney, oral 5 mg/kg, 4 h, rats ref 25) it was 14.7; in data set [2] (Liver, oral 5 mg/kg, 4 h, rats ref 25) it was 22.0; in data set [2] (Lung, oral 5 mg/kg, 4 h, rats ref 25), 9.09; in data set [2] (Pancreas, oral 5 mg/kg, 4 h, rats ref 25) it was 5.69. The pKa in data set [5] is on record as 7.7.
